The target of the assay is human NAMPT (Homo sapiens (Human), UniProt P43490). Kind of assay: NMN fluorescence biochemical assay (human recombinant NAMPT enzyme assay). In short, it runs like this: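 Activation of recombinant human NAMPT (6 nM) was tested with 2.5 mM ATP, 20 μM PRPP and 150 μM nicotinamide in 50 mM HEPES pH 7.2 for 60 min at ambient temperature. NMN was derivatized with acetophenone/KOH/formic acid and read by fluorescence (355/460 nm) after 40 min.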

Where a name gives a salt, the structure may show the parent alone.

Chain of human NAMPT (P43490 whole entry): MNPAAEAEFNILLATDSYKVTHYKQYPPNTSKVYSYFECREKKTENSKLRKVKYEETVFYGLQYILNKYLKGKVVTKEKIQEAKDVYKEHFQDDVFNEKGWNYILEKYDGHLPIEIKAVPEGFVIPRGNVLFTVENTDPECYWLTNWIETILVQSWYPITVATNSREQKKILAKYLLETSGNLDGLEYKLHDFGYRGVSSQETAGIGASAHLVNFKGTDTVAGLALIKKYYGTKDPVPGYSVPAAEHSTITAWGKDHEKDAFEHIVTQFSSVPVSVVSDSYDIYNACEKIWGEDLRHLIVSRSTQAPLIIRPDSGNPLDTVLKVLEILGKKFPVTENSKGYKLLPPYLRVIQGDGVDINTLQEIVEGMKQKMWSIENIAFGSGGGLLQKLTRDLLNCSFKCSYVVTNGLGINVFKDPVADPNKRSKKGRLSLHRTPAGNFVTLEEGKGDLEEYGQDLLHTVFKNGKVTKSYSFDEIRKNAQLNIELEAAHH

For the compound `Cc1nc(C)c(C(=O)NCc2ccc(NC(=O)OCc3ccc(Cl)cc3)cc2)o1` [Compound 211, (4-chlorophenyl)methyl N-(4-{[(2,4-dimethyl-1,3-oxazol-5-yl)formamido]methyl}phenyl)carbamate], the “AC1.4 Human” value stood at 1.91 µM and the EC50 worked out at 10.6 µM.
With `O=C(Nc1ccc(CC(=O)N2CCC(F)CC2)cc1)OCc1ccc(Cl)cc1` [Compound 212, (4-chlorophenyl)methyl N-{4-[2-(4-fluoropiperidin-1-yl)-2-oxoethyl]phenyl}carbamate], the “AC1.4 Human” value amounted to 1.93 µM and the EC50 amounted to 10.2 µM.
The like results for `COc1nc(C)ccc1C(=O)N[C@@H](C)c1ccc(NC(=O)OCc2ccc(Cl)cc2)cc1` [Compound 213, (4-chlorophenyl)methyl N-{4-[(1S)-1-[(2-methoxy-6-methylpyridin-3-yl)formamido]ethyl]phenyl}carbamate] were, in that order, 1.95 µM and 2.92 µM.
For `Cc1ccc(C(=O)NCc2ccc(NC(=O)OCc3ccc(Cl)cc3)cc2)nc1` [Compound 214, (4-chlorophenyl)methyl N-(4-{[(5-methylpyridin-2-yl)formamido]methyl}phenyl)carbamate] the same measures were 1.96 µM and 9.59 µM.
With `CC1CCCN1C(=O)Cc1ccc(NC(=O)OCc2ccc(Cl)cc2)cc1` (stereo not shown) [Compound 215, (4-chlorophenyl)methyl N-{4-[2-(2-methylpyrrolidin-1-yl)-2-oxoethyl]phenyl}carbamate], the “AC1.4 Human” value came to 1.96 µM and the EC50 is 8.35 µM.
For `O=C(Nc1ccc(Cc2ccncc2)cc1)OCc1ccc(Cl)cc1` [Compound 216, 4-chlorobenzyl (4-(pyridin-4-ylmethyl)phenyl)carbamate] the same measures were 1.98 µM and 5.81 µM.
For `COc1ccc(COC(=O)Nc2ccc(COC3CCN(C(C)=O)CC3)cc2)cc1` [Compound 217, 4-methoxybenzyl (4-(((1-acetylpiperidin-4-yl)oxy)methyl)phenyl)carbamate], the “AC1.4 Human” value was 1.98 µM and the EC50 turned out to be 24.4 µM.
The like results for `Cc1ncc(C(=O)N[C@@H](C)c2ccc(NC(=O)OCc3ccc(Cl)cc3)cc2)o1` [Compound 218, (4-chlorophenyl)methyl N-{4-[(1S)-1-[(2-methyl-1,3-oxazol-5-yl)formamido]ethyl]phenyl}carbamate] were, in that order, 1.99 µM and 9.06 µM.
For the compound `O=C(Nc1ccc(Cc2ccncc2)cc1)OCc1ccns1` [Compound 219, isothiazol-5-ylmethyl (4-(pyridin-4-ylmethyl)phenyl)carbamate], the “AC1.4 Human” value was found to be 2.03 µM and the EC50 worked out at 20.6 µM.
For `O=C(Nc1ccc(CC(=O)N2CCOCC2)cc1)OCc1ccc(Cl)cc1` [Compound 220, (4-chlorophenyl)methyl N-{4-[2-(morpholin-4-yl)-2-oxoethyl]phenyl}carbamate], the “AC1.4 Human” value turned out to be 2.03 µM and the EC50 came out at 32.5 µM.
For `O=C(Cc1ccc(NC(=O)OCc2ccc(Cl)cc2)cc1)N[C@H]1CC[C@H](OC(F)F)CC1` [Compound 221, (4-chlorophenyl)methyl N-[4-({[(1r,4r)-4-(difluoromethoxy)cyclohexyl]carbamoyl}methyl)phenyl]carbamate] the same measures were 2.04 µM and 2.16 µM.
The like results for `CS(=O)(=O)C1CN(Cc2ccc(NC(=O)OCc3ccc(Cl)cc3)cc2)C1` [Compound 222, (4-chlorophenyl)methyl N-{4-[(3-methanesulfonylazetidin-1-yl)methyl]phenyl}carbamate] were, in that order, 2.05 µM and 27.6 µM.
The like results for `O=C(Nc1ccc(CN2CCN(C3COC3)CC2)cc1)OCc1ccc(Cl)cc1` [Compound 223, (4-chlorophenyl)methyl N-(4-{[4-(oxetan-3-yl)piperazin-1-yl]methyl}phenyl)carbamate] were, in that order, 2.05 µM and 17.6 µM.
On to `C[C@H](NC(=O)Cc1ncco1)c1ccc(NC(=O)OCc2ccc(Cl)cc2)cc1` [Compound 224, 4-chlorobenzyl (S)-(4-(1-(2-(oxazol-2-yl)acetamido)ethyl)phenyl)carbamate], for which the “AC1.4 Human” value was determined as 2.08 µM and the EC50 is 10.1 µM.
The like results for `Cc1cc(C(=O)NCc2ccc(NC(=O)OCc3ccc(Cl)cc3)cc2)n(C)n1` [Compound 225, (4-chlorophenyl)methyl N-(4-{[(2,5-dimethylpyrazol-3-yl)formamido]methyl}phenyl)carbamate] were, in that order, 2.08 µM and 9.1 µM.
The like results for `O=C(Nc1ccc(CNC(=O)c2cnccn2)cc1)OCc1ccc(Cl)cc1` [Compound 226, (4-chlorophenyl)methyl N-{4-[(pyrazin-2-ylformamido)methyl]phenyl}carbamate] were, in that order, 2.09 µM and 6.14 µM.
For `Cc1ccc(C(=O)NCc2ccc(NC(=O)OCc3ccc(F)cc3)cc2)cn1` [Compound 227, 4-fluorobenzyl (4-((6-methylnicotinamido)methyl)phenyl)carbamate] the same measures were 2.11 µM and 3.47 µM.
As to `CN1CC[C@H](NCc2ccc(NC(=O)OCc3ccc(Cl)cc3)cc2)C1=O` [Compound 228, 4-chlorobenzyl (S)-(4-(((1-methyl-2-oxopyrrolidin-3-yl)amino)methyl)phenyl)carbamate], the “AC1.4 Human” value amounted to 2.11 µM and the EC50 came out at 21.4 µM.
The like results for `CO[C@@H]1CCCN(C(=O)Cc2ccc(NC(=O)OCc3ccc(Cl)cc3)cc2)C1` [Compound 229, (4-chlorophenyl)methyl N-(4-{2-[(3R)-3-methoxypiperidin-1-yl]-2-oxoethyl}phenyl)carbamate] were, in that order, 2.13 µM and 12.8 µM.
For `C[C@H](NC(=O)[C@H]1C[C@@H]2[C@H](C1)C2(F)F)c1ccc(NC(=O)OCc2cnco2)cc1` [Compound 230, 1,3-oxazol-5-ylmethyl N-{4-[(1S)-1-{[(1R,3r,5S)-6,6-difluorobicyclo[3.1.0]hexan-3-yl]formamido}ethyl]phenyl}carbamate], the “AC1.4 Human” value turned out to be 2.13 µM and the concentration giving a half-maximal response (EC50) is 15.3 µM.
Take `O=C(Nc1ccc(CC2CCNCC2)cc1)OCc1ccc(Cl)cc1` [Compound 231, 4-chlorobenzyl (4-(piperidin-4-ylmethyl)phenyl)carbamate hydrochloride]: the “AC1.4 Human” value was 2.13 µM and the EC50 worked out at 33.8 µM.
The like results for `O=C(Nc1ccc(Cc2ccccn2)cc1)OCc1ccc(Cl)cc1` [Compound 233, 4-chlorobenzyl (4-(pyridin-2-ylmethyl)phenyl)carbamate] were, in that order, 2.18 µM and 7.8 µM.
As for `CC(C)c1ccc(C(=O)NCc2ccc(NC(=O)OCc3ccc(Cl)cc3)cc2)cn1` [Compound 234, (4-chlorophenyl)methyl N-(4-{[(6-isopropylpyridin-3-yl)formamido]methyl}phenyl)carbamate], the “AC1.4 Human” value is 2.19 µM and the EC50 came to 3.38 µM.
For `O=C1CN(C(=O)Cc2ccc(NC(=O)OCc3ccc(Cl)cc3)cc2)CCN1` [Compound 235, (4-chlorophenyl)methyl N-{4-[2-oxo-2-(3-oxopiperazin-1-yl)ethyl]phenyl}carbamate], the “AC1.4 Human” value was determined as 2.22 µM and the EC50 turned out to be 44.9 µM.
The like results for `O=C1CN(C2CCC2)[C@@H](c2ccc(NC(=O)OCc3ccc(Cl)cc3)cc2)CN1` [Compound 236, 4-chlorobenzyl (S)-(4-(1-cyclobutyl-5-oxopiperazin-2-yl)phenyl)carbamate] were, in that order, 2.25 µM and 50.6 µM.
The like results for `O=C(Nc1ccc(CC(=O)N2CCC[C@@H](O)C2)cc1)OCc1ccc(Cl)cc1` [Compound 237, (4-chlorophenyl)methyl N-(4-{2-[(3R)-3-hydroxypiperidin-1-yl]-2-oxoethyl}phenyl)carbamate] were, in that order, 2.25 µM and 32.3 µM.
As to `O=C(Nc1ccc(CNC(=O)c2ccnn2C2CCOCC2)cc1)OCc1ccc(Cl)cc1` [Compound 238, (4-chlorophenyl)methyl N-[4-({[2-(oxan-4-yl)pyrazol-3-yl]formamido}methyl)phenyl]carbamate], the “AC1.4 Human” value was determined as 2.29 µM and the EC50 came out at 10.6 µM.
For `O=C(Nc1ccc(CNC(=O)c2ccc(C(F)(F)F)nc2)cc1)OCc1ccc(Cl)cc1` [Compound 239, (4-chlorophenyl)methyl N-[4-({[6-(trifluoromethyl)pyridin-3-yl]formamido}methyl)phenyl]carbamate] the same measures were 2.32 µM and 1.89 µM.
For `CC1CCN(C(=O)Cc2ccc(NC(=O)OCc3ccc(Cl)cc3)cc2)CC1` [Compound 240, (4-chlorophenyl)methyl N-{4-[2-(4-methylpiperidin-1-yl)-2-oxoethyl]phenyl}carbamate] the same measures were 2.33 µM and 2.73 µM.
As for `Cc1ocnc1C(=O)N[C@@H](C)c1ccc(NC(=O)OCc2ccc(Cl)cc2)cc1` [Compound 241, (4-chlorophenyl)methyl N-{4-[(1S)-1-[(5-methyl-1,3-oxazol-4-yl)formamido]ethyl]phenyl}carbamate], the “AC1.4 Human” value was found to be 2.37 µM and the EC50 stood at 11.8 µM.
For `O=C(Nc1ccc(CN2CCOC2=O)cc1)OCc1ccc(Cl)cc1` [Compound 242, (4-chlorophenyl)methyl N-{4-[(2-oxo-1,3-oxazolidin-3-yl)methyl]phenyl}carbamate] the same measures were 2.38 µM and 19.8 µM.
The like results for `Cc1coc(C(=O)N[C@@H](C)c2ccc(NC(=O)OCc3ccc(Cl)cc3)cc2)n1` [Compound 243, 4-chlorobenzyl (S)-(4-(1-(4-methyloxazole-2-carboxamido)ethyl)phenyl)carbamate] were, in that order, 2.38 µM and 26.3 µM.

One may read the EC50 as the concentration that produces a half-maximal response.

The record behind these values is patent publication US20240279215A1 (Cytokinetics, Incorporated, priority 2022, published 2024).
